Experimental data reported in US20100111965A1, “COMBINATION THERAPY” (FUSION ANTIBODIES LIMITED, priority 2006, published 2010).

System: RKO +/+
Assay: Semi quantitative RT-PCR of AREG RNA in RKO cells after chemotherapy
Type: cell-based, human
Settings: 48 h after treatment, 7.5 μM
Procedure: FIG. 1A illustrates analysis of AREG and beta actin RNA expression in RKO +/+ with/without either a 48 hour CPT11 treatment or 5-Fu treatment. RNA levels were analyzed following 35 cycle of PCR to determine relative differences in expression between treated and untreated samples;
Cells in a log phase of growth were seeded into T75 flask at ˜20% confluence and incubated overnight to allow adherence to the plate. […] Chemotherapy was substituted with saline in control flasks. After different time exposure to chemotherapy the cells were harvested, washed 3 times in PBS and total RNA was isolated using the RNA TAT-60 reagent according to the manufacturer instructions.
Reverse transcription was performed with 2.5 μg of RNA using a High Capacity cDNA Archive kit (Applied Biosystem) according to the instruction of the manufacturer.
Semi quantitative RT-PCR was performed using a PTC 225 Gradient Cycler (MJ Research Incorporated. The PCR mixture, in a final volume of 25 μL, contains 12.5 μL of 2× Biomix (Bioline, UK), 2 μL of primers (10 μmol/L), 1 μL of cDNA and 9.5 μL of dH2O). PCR conditions were initial denaturation step of 95 C for 10 minutes, followed by 35 cycles of 95° C. for 30 sec for denaturation; as annealing step 55° C. for 30 sec; and extension at 72° C. for 90 sec, with a final extension of 72° C. for 10 minutes. […]

## CCc1c2c(nc3ccc(OC(=O)N4CCC(N5CCCCC5)CC4)cc13)-c1cc3c(c(=O)n1C2)COC(=O)[C@]3(O)CC [CPT-11, irinotecan]
  AREG RNA expression (RT-PCR): upregulation
